Laboratory results: ChEMBL document CHEMBL1136113, “Synthesis and inhibitory activity of ubiquinone-acetogenin hybrid inhibitor with bovine mitochondrial complex I” (Bioorg Med Chem Lett, 2003)

Molecular target: Mitochondrial complex I; NADH oxidoreductase (Bos taurus, UniProt P25708+P52505)
Experiment: Inhibition of complex I activity was determined by NADH oxidase assay using bovine heart submitochondrial particles.
Format: protein-complex assay

Chain of Mitochondrial complex I; NADH oxidoreductase (P25708 21-464 limits assumed, other chains not shown): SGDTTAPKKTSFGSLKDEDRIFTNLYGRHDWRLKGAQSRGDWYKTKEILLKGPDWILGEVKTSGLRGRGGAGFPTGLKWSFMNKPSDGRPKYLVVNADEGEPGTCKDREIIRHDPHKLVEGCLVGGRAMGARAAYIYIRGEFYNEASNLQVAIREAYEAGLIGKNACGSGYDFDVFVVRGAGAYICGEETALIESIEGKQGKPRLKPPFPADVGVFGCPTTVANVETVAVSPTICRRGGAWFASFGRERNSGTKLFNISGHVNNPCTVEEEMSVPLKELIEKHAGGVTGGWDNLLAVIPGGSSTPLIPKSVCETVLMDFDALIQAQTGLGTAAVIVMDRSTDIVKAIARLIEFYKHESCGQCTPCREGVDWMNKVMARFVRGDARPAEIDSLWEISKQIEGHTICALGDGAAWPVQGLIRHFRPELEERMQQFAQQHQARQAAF

SMILES | IC50 [nM]
CCCCCCCCCC[C@@H](O)[C@H]1CC[C@H]([C@H]2CC[C@H]([C@H](O)CCCCCCCCCCCCc3c(C)c(OC)c(OC)c(OC)c3OC)O2)O1 | 280
CCCCC[C@@H](O)[C@H]1CC[C@H]([C@H]2CC[C@H]([C@H](O)CCCCC)O2)O1 | 4500
CCCCCCCCCC[C@@H](O)[C@H]1CC[C@H]([C@H]2CC[C@H]([C@H](O)CCCCCCCCCCCCC3=C(C)C(=O)C(OC)=C(OC)C3=O)O2)O1 | 1.2
CCCCCCCCCC[C@@H](O)[C@@H]1CC[C@@H]([C@@H]2CC[C@@H]([C@H](O)CCCCCCCCCC(O)CC3=CC(C)OC3=O)O2)O1 (stereo not given in full) [BULLATACIN] | 0.9
CCCCCCCCCC[C@@H](O)[C@H]1CC[C@H]([C@H]2CC[C@H]([C@H](O)CCCCCCCCCCCCC3=C[C@H](C)OC3=O)O2)O1 [ISODESAACETYLUVARICIN] | 0.9
